Counter-ions that a name gives are not always drawn. Residues, ends and D or L forms follow the SMILES beside them. *: point of attachment. pNA = O=[N+]([O-])c1ccc(N*)cc1; Tos = Cc1ccc(S(=O)(=O)*)cc1; Hexanoyl = CCCCCC(=O)*; Propionyl = CCC(=O)*; Tfa = O=C(C(F)(F)F)*; NHPh = c1ccc(N*)cc1
Assays:
[1] = target: T1, human granulocyte elastase (Homo sapiens, UniProt P08246); assay: in vitro elastase inhibition, test method of Visser and Blout, human granulocyte elastase as enzyme; type: biochemical; settings: read-out: I50, concentration which gives 50% inhibition of the human granulocyte elastase
T1 sequence (P08246 30-267): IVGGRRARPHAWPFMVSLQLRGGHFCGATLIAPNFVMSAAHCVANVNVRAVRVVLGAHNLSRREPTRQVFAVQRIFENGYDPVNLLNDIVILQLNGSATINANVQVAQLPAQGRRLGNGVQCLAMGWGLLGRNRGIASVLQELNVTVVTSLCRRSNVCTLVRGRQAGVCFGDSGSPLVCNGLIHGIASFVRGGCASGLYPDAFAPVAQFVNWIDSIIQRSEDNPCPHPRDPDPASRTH
From the text: Acta 268 (1972) 257, using human granulocyte elastase as the enzyme. The results obtained with representative dipeptide derivatives of formula I in this test are given in Table I hereinafter, the I50 being the concentration in millimoles per liter which gives 50% inhibition of the human granulocyte elastase: […]

[2] = target: porcine pancreatic elastase (Sus scrofa, UniProt P00772); assay: in vitro elastase inhibition, test method of Visser and Blout, porcine pancreatic elastase as enzyme; type: biochemical; settings: read-out: Ki, inhibitor constant
porcine pancreatic elastase, sequence (P00772 27-266): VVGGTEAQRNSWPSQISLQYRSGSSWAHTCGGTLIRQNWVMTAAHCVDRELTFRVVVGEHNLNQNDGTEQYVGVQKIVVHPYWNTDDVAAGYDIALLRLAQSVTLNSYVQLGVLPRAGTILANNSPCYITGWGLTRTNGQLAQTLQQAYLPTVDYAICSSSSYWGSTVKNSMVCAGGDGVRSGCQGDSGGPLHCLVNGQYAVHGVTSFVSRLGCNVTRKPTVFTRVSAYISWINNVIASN

SMILES	IC50 [1]	Ki [2]
C[C@H](NS(=O)(=O)C12CC3CC(CC(C3)C1)C2)C(=O)N1CCC[C@H]1C(=O)Nc1ccccc1 [N-(1-Adamantylsulphonyl)-L-alanyl-L-proline anilide]	7 µM	–
Cc1ccc(S(=O)(=O)N[C@@H](C)C(=O)N2CCC[C@H]2C(=O)Nc2ccccc2)cc1 [N-(p-Toluenesulphonyl)-L-alanyl-L-proline anilide] (Tos-Ala-Pro-NHPh)	60 µM	–
C[C@H](NC(=O)OCc1ccccc1)C(=O)N1CCC[C@H]1C(=O)NC1CCCCC1 [N-Benzyloxycarbonyl-L-alanyl-L-proline cyclohexylamide]	1000 µM	–
CCC(=O)N[C@@H](C)C(=O)N[C@@H](C)C(=O)Nc1ccccc1 [N-Propionyl-L-alanyl-L-alanine anilide] (Propionyl-Ala-Ala-NHPh)	–	40 µM
CCC(=O)N[C@@H](C)C(=O)N1CCC[C@H]1C(=O)NC1CCCCC1 [N-Propionyl-L-alanyl-L-proline cyclohexylamide]	–	20 µM

More lines, now with the values ahead:

IC50 [1]	Ki [2]	SMILES
800 µM	–	CCCCCC(=O)N[C@@H](C)C(=O)N1CCC[C@H]1C(=O)Nc1ccccc1 [(N-Hexanoyl-L-alanyl-L-proline) anilide, N-Hexanoyl-L-alanyl-L-proline anilide] (Hexanoyl-Ala-Pro-NHPh)
60 µM	–	C[C@H](NC(=O)CC12CC3CC(CC(C3)C1)C2)C(=O)N1CCC[C@H]1C(=O)Nc1ccccc1 [N-(1-Adamantylacetyl)-L-alanyl-L-proline anilide]
600 µM	–	C[C@H](NC(=O)C12CC3CC(CC(C3)C1)C2)C(=O)N1CCC[C@H]1C(=O)Nc1ccccc1 [N-(1-Adamantylcarbonyl)-L-alanyl-L-proline anilide]
~5000 µM	–	CCCCCNC(=O)[C@@H]1CCCN1C(=O)[C@H](C)NC(=O)OCc1ccccc1 [N-Benzyloxycarbonyl-L-alanyl-L-proline n-pentylamide]
–	26 µM	CCC(=O)N[C@@H](C)C(=O)N1CCC[C@H]1C(=O)Nc1ccc([N+](=O)[O-])cc1 [N-Propionyl-L-alanyl-L-proline 4-nitroanilide] (Propionyl-Ala-Pro-pNA)
–	40 µM	CCC(=O)N[C@@H](C)C(=O)N1CCC[C@H]1C(=O)Nc1ccccc1 [N-Propionyl-L-alanyl-L-proline anilide] (Propionyl-Ala-Pro-NHPh)
–	1.4 µM	C[C@H](NC(=O)C(F)(F)F)C(=O)N1CCC[C@H]1C(=O)Nc1ccccc1 [N-Trifluoroacetyl-L-alanyl-L-proline anilide] (Tfa-Ala-Pro-NHPh)

Source: patent US4187216A, “Dipeptide derivatives” (Hoffmann-La Roche Inc., priority 1976, dated 1980)
